Key:
brevenal binding site [1] = assay: Fluorescent-ligand competition; design: species or system rat; details: for displacement of BODIPY FL-brevenal from synaptosomes (in words): BODIPY FL-brevenal 10 nM, competitors 1 pM to 10 μM
brevenal binding site [2] = assay: Radioligand; details: read-out: Ki: radioligand assay; [3H]-brevenol, rat brain synaptosomes, mean ± SEM
[3] = test system: voltage-sensitive sodium channels (VSSCs); details: cited from earlier work
VSSCs = details: cited from earlier work
sheep = details: cited from earlier work
fish = details: cited from earlier work

In the case of `CC1(C)[C@H](C(=O)O[C@H](C#N)c2cccc(Oc3ccccc3)c2)[C@@H]1C=C(Br)Br` [deltamethrin], the “displacement of BODIPY FL-brevenal from synaptosomes (in words)” value (“displacement of BODIPY FL-brevenal” below) (brevenal binding site [1]) is reported as “none of these ligands were able to displace”.

For `COc1ccc(C(=O)O[C@H]2CC[C@@]3(C)[C@@H]4CC[C@H]5[C@]6(O)C[C@H](O)[C@@]7(O)[C@@H](CN8C[C@@H](C)CC[C@H]8[C@@]7(C)O)[C@]6(O)C[C@@]53O[C@]24O)cc1OC` [veratridine], the “displacement of BODIPY FL-brevenal” value (brevenal binding site [1]) was “none of these ligands were able to displace”.

With `C=C/C=C\CC[C@H]1O[C@H]2CC[C@@]3(C)O[C@H]4[C@@H](O)C[C@@]5(C)O[C@@H](CC/C=C(C)/C(C)=C/C=O)[C@@H](C)C[C@H]5O[C@@H]4C[C@@H]3O[C@@H]2CC[C@@]1(C)O` [brevenal] the Ki (brevenal binding site [2]) was 149 ± 30 nM, the “displacement of BODIPY FL-brevenal” value (brevenal binding site [1]) was “competed for binding to synaptosomes” and the Ki (brevenal binding site [1]; read-out: Ki: fluorescent-ligand assay, BODIPY FL-brevenal 10 nM as ligand, rat brain synaptosomes, mean ± SEM) was 170 ± 31 nM. For the same compound, the “displacement of tritiated PbTx from synaptosomes” value [3] was “competitively displace”, the “effect on VSSCs in patch-clamp experiments” value (VSSCs) was “does not appear to have any effect” and the “mucociliary transport in sheep” value (sheep) was “increases mucociliary transport”. The toxicity to fish (fish) was “nontoxic at micromolar concentrations”.

With `CCN1C[C@]2(COC)[C@H](O)C[C@H](OC)[C@@]34[C@@H]5C[C@@]6(O)[C@H](OC(=O)c7ccccc7)[C@@H]5[C@@](OC(C)=O)([C@@H]([C@H](OC)[C@H]23)[C@@H]14)[C@@H](O)[C@@H]6OC` [aconitine] the “displacement of BODIPY FL-brevenal” value (brevenal binding site [1]) was “none of these ligands were able to displace”.

For PbTx-9, the “displacement of BODIPY FL-brevenal” value (brevenal binding site [1]) was “None of the naturally occurring PbTx analogues were able to displace”.
